{"source": "paper PMC11784013", "about": "“Potassium molybdate blocks APN-dependent coronavirus entry by degrading receptor via PIK3C3-mediated autophagy” (Journal of Virology, 2024)", "test_system": "PRCV", "test": "PRCV infection of ST cells (RT-qPCR, TCID50, western blot, IFA)", "format": "cell-based, porcine respiratory coronavirus", "settings": "PRCV 0.1 MOI; for PRCV N level, western blot, relative to WT without PM (=1): PM 10 mM, 16 h", "experimental": "Fig 1 PM inhibits TGEV and PRCV infection in ST cells. (A) A cytotoxicity assay of PM in ST cells. ST cells cultured in a 96-well plate were incubated with different concentrations of PM for 24 h, which was tested by Cell Counting Kit 8. (B) Time course for PM inhibiting TGEV or PRCV or PEDV infection assay. (C–F) The ST cells, pretreated with PM at the indicated concentrations for 1 h were infected with TGEV Miller (0.1 MOI) or PRCV (0.1 MOI) for 1 h and were again treated with PM at 37°C for 17 h. The cell samples were collected and examined by real-time quantitative PCR (RT-qPCR), TCID50, western blot (C and D), and immunofluorescence assay (IFA) (E and F), scale bar: 50 µm. (G) Vero-E6 cells were treated with indicated PM and infected with PEDV LJX 01/2014 according to the time course of Fig. 1B, which was detected by TCID50 and western blot. Results are presented as mean ± SD of data from three independent experiments. ns, no significant; **, P ≤ 0.01; ***, P ≤ 0.001.\nFig 3 PM inhibits TGEV and PRCV infection by potassium ion and molybdate synergy. (A and B) The ST cells, pretreated with potassium chloride (KCl) or sodium molybdate (Na2MoO4) at the indicated concentrations for 1 h were infected with TGEV Miller (0.1 MOI) for 1 h and were again treated with KCl or Na2MoO4 at 37°C for 17 h. The cell samples were measured by RT-qPCR. (C and D) ST cells were treated with PM (K2MoO4, 10 mM), KCl (20 mM), Na2MoO4 (10 mM), sodium chloride (NaCl, 10 mM), K2MoO4 (10 mM), and NaCl (20 mM) as well as Na2MoO4 (10 mM) and KCl (20 mM) for 1 h and then infected with TGEV Miller (0.1 MOI) or PRCV (0.1 MOI) for 17 h, which was determined by RT-qPCR and TCID50. Results are presented as mean ± SD of data from three independent experiments. ***, P ≤ 0.001; ns, no significance.\nTotal RNA was extracted using RNAiso reagent (TaKaRa, Japan, 9109) and reverse transcribed into cDNA using HiScript Q RT SuperMix for qPCR (Vazyme, China, R223-01), both of which followed the manufacturer’s recommendations. The TGEV and PRCV virus copy numbers were detected by the TaqMan probe-based RT-qPCR method developed previously in our laboratory ([59]). Relative qPCR was also performed using ChamQ SYBR qPCR master mix (Vazyme, China, Q311-02), and the results were calculated via the 2^-ΔΔCT method.\nFig. S8. PM inhibits PRCV infection by degrading APN via PIK3C3-mediated autophagy. (A-C) WT ST cells and PIK3C3 KO ST cells were treated with PM (10 mM) and infected with PRCV (0.1 MOI) for 16 h. Then the APN, PIK3C3, ATG14, BECN1, P62, PRCV N and LC3 were detected by western blot (A), and viral titers and PRCV N mRNA level were determined by TCID50 (B) and RT-qPCR (C) . (D-F) WT ST cells and PIK3C3 KO ST cells transfected with pCMV-Myc and pCMV-Myc-PIK3C3 respectively for 24 h were treated with PM (10 mM) and infected with PRCV (0.1 MOI) for 16 h. The APN, PIK3C3, P62, PRCV N and LC3 were determined by western blot (D). TCID50 (E) and RT-qPCR (F) were performed to detect viral titers and PRCV N m RNA level. All western blot results were calculated by Image J. Results are presented as mean ± SD of data from three independent experiments (also on this page, place not known: 6 8 10 12 Viral load(log copies/ul) *** 2 4 6 8 log10 TCID50/ml *** 6 8 10 12 + Viral load(log copies/ul) PIK3C3-Myc + - + + + *** *** 2 4 6 8 log10 TCID50/ml *** + + + + PIK3C3-Myc - - - + - + + + *** WT KO PM (C). WT KO PM PRCV PM - + + PRCV + + + WT PIK3C3 KO PIK3C3 PRCV PIK3C3-Myc - - - + PM - + + + PRCV + + + + WT PIK3C3 KO 0 0) […]"}
{"compound": "[K+].[K+].[O]=[Mo](=[O])([O-])[O-]", "note": "[PM, potassium molybdate]", "values": [{"measurement": "PRCV N level, western blot, relative to WT without PM (=1)", "setting": "Fig. S8A, PIK3C3 KO ST cells", "value": 0.81}, {"measurement": "PRCV N level, western blot, relative to WT without PM (=1)", "setting": "Fig. S8A, WT ST cells", "value": 0}, {"measurement": "PRCV N level, western blot, relative to WT without PM (=1)", "setting": "Fig. S8D, PIK3C3 KO ST cells with PIK3C3-Myc", "value": 0}, {"measurement": "PRCV N level, western blot, relative to WT without PM (=1)", "setting": "Fig. S8D, PIK3C3 KO ST cells without PIK3C3-Myc", "value": 0.78}, {"measurement": "PRCV N level, western blot, relative to WT without PM (=1)", "setting": "Fig. S8D, WT ST cells with pCMV-Myc", "value": 0}, {"measurement": "PRCV infection", "setting": "ST cells, PM 1 h pretreatment and 17 h after infection, RT-qPCR, TCID50, western blot, IFA", "value": "effectively restricted"}]}
